Test results published in paper PMC6787515 (Journal of Cellular and Molecular Medicine, 2019).
Values after ≈ are worked out from the molar mass of the structure shown.

Key:
Type in all cases: biochemical, Staphylococcus aureus
β‐lactamase N1 [1] = biological target: T1, β‐lactamase N1; assay: nitrocefin hydrolysis assay, purified mutant enzyme
T1 construct: gene rnjB

β‐lactamase N1 [2] = biological target: T1, β‐lactamase N1; assay: nitrocefin hydrolysis assay, purified recombinant enzyme
β‐lactamase N1 [3] = biological target: T1, β‐lactamase N1; assay: nitrocefin hydrolysis assay, purified mutant enzyme; remark: listed apart in the source

`O=C(O[C@@H]1Cc2c(O)cc(O)cc2O[C@@H]1c1cc(O)c(=O)c2c(O)c(O)cc([C@H]3Oc4cc(O)cc(O)c4C[C@H]3OC(=O)c3cc(O)c(O)c(O)c3)c2c1)c1cc(O)c(O)c(O)c1` [TFDG, Theaflavin‐3,3´‐digallate] was tested, and the IC50 (β‐lactamase N1 [1]) was 30.13 µg/mL (≈ 34.7 µM), the IC50 (β‐lactamase N1 [2]) was 5.82 µg/mL and the IC50 (β‐lactamase N1 [3]) was 28.91 µg/mL (≈ 33.3 µM).
